Results on three sequences are retold here after patent US20120065123A1, “Synthetic Antibodies” (priority 2009, published 2012).

For assay [1], the target named is T1, Transferrin (Homo sapiens, UniProt P02787). The assay can be described thus: Peptide microarray ranking, labeled transferrin with E. coli lysate competitor. The class given is binding. On the procedure: Several polypeptides were identified as candidate affinity elements for synbodies against an arbitrarily chosen protein target, transferrin, by incubating transferrin on the polypeptide microarray in the presence of E. coli lysate competitor. Transferrin was randomly direct-labeled at free amines with Alexa™ 555, and E. coli lysate was randomly direct-labeled at free amines with Alexa™ 647. Three replicate arrays were passivized by applying a mixture of BSA and mercaptohexanol for one hour. The arrays were blocked with unlabelled E. coli lysate for one hour, then washed three times with TBST (0.05% Tween) followed by three times with water. A mixture of labeled transferrin and labeled E. coli lysate was applied to the three replicate arrays and incubated for three hours. The arrays were again washed three times with TBST (0.05% Tween) followed by three times with water, and scanned at 555 nm and 647 nm using an array reader. Polypeptides were ranked as candidates for inclusion as affinity elements of synbodies by computing a score for each polypeptide equal to the mean raw 555 nm intensity over the six replicate features, squared, divided by the mean raw 647 nm intensity over the six replicate features. This simple scoring function tends to favor candidate polypeptides that bind at least moderate affinity, since otherwise the 555 nm intensity would be relatively lower, and that are relatively specific, since otherwise the 647 nm intensity would be relatively higher and contribute to a relatively lower score. Many variations of this ranking and identification process can be used, such as, by way of non-limiting examples, two-color comparisons against other competitors; comparisons with data taken in separate experiments with respect to other targets; and use of scoring functions taking into account other factors, employing other functional relationships, and/or involving statistical analysis and/or preprocessing of data and/or correcting for background fluorescence and/or other factors affecting the accuracy of the measured intensities. Ten polypeptides (Table 1) were identified for further evaluation for use as affinity elements in synbodies by choosing the polypeptides having the highest score (one polypeptide was rejected as difficult to synthesize, so the polypeptides chosen were ten of those having the eleven highest scores).
T1 sequence (P02787 20-698): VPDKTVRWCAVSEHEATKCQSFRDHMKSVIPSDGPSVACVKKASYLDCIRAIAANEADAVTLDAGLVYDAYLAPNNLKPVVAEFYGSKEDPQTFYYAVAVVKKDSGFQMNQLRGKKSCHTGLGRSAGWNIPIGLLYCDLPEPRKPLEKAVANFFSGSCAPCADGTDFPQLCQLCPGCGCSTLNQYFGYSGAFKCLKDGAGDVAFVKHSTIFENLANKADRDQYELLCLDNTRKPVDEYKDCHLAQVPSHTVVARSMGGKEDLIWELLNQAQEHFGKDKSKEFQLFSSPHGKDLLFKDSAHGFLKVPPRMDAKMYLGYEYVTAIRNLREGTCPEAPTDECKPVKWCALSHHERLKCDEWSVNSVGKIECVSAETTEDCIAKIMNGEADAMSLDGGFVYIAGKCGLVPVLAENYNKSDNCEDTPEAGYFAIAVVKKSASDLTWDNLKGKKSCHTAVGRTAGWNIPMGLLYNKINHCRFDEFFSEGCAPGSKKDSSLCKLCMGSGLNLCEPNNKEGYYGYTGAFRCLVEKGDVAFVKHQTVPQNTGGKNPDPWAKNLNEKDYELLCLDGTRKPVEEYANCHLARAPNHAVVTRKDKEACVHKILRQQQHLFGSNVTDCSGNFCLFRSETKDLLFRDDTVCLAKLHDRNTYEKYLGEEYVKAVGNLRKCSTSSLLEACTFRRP
After preparation of the array in accordance with the methods previously described in Example 2, the array was washed one time for five minutes in 7.33% acetonitrile, 37% isopropanol, 0.55% trifluoroacetic acid, and 55% water. Alexa 555 labeled target protein transferrin was applied, together with Alexa 647 labeled E. coli lysate competitor, to the prewashed array and to an identical array without organic prewash. […] 5,010 on the array without organic prewash, but ranked no. 9601 on the prewashed array. Conversely, peptide TRF-21, shown by SPR analysis to be a relatively strong binder of transferrin, rose in rank from 84 on the non-prewashed array to rank no. 5 on the prewashed array.

The target in assay [2] is T1, Transferrin. The assay can be described thus: SPR solution phase KD of candidate affinity elements, transferrin immobilized (Biacore T100). The conditions noted are these: steady-state response, 25° C., PBST. The class given is binding. The procedure: Transferrin 25 μg/ml in immobilization buffer selected for correct pH was then applied 302 at a flow rate of 5 to 10 μl/min for a contact time of about 5 to 10 minutes, allowing the amine functionality on the transferrin 308 to displace the activated NHS ester and bond to the surface via an amide bond. Finally, ethylene diamine (1M ethylene diamine-HCl at pH 8.5) was applied 304 at a flow rate of 5 to 10 μl/min for a contact time of about 6 to 7 minutes to deactivate any remaining reactive groups on the dextran chip surface. Flow rates and contact times are adjusted as necessary to provide the surface concentration of target desired for the intended application, and may vary by target. In general, for evaluating whether binding occurs, it is preferable to immobilize a relatively large quantity of target, and higher flow rates and/or longer contact times may be used. For determining kinetics, it is preferable to limit the amount of target immobilized so as to minimize rebinding and avidity effects, and lower flow rates and/or contact times may be used.
Candidate affinity elements for the transferrin synbody TRF19, TRF21, TRF23, TRF24, TRF25, and TRF26 were individually evaluated for solution phase KD with respect to transferrin by SPR analysis. Because the off rates for these polypeptides were very high, KD values were estimated by measuring steady-state response for at least five concentrations in a two-fold dilution series, each concentration tested in duplicate. For each experiment, response data were processed using a reference surface to correct for bulk refractive index changes and any non-specific binding. Data were also double referenced using responses from blank running buffer injections. Each experiment was conducted at 25° C. using PBST (0.01M Phosphate Buffered Saline, 0.138M NaCl, 0.0027M KCl, 0.05% surfactant Tween20, pH 7.4) as the running buffer on a Biacore T100 instrument. Analytes were injected for 60 s at a flow rate of 30 μl/min. The antigen surfaces were regenerated with 30 s consecutive pulses of NaOH/NaCl (50 mM NaOH in 1M NaCl) and Glycine (10 mM glycine-HCl, pH 2.5).
(In general: In SPR one partner is held on a chip, and binding of the other changes the refractive index at the surface.)

The target of assay [3] is T1, Transferrin. Kind of assay: Affinity characterization of TRF26 lead and selected mutants. The class given is binding. On the procedure: Two TRF26 point-mutants (P6Y, H12F) were selected for further affinity characterization. The P6Y and H12F point-mutants have dissociation constants of 8.6±1.6 μM and 9.8±1.6 μM respectively. […] A TRF26 double mutant sequence containing the P6Y+H12F mutations was synthesized and characterized.

Assay [4] deals with T1, Transferrin. The assay can be described thus: SPR analysis of peptide pairs for binding to distinct sites on target. The following applies: peptides applied in 1:1 mixtures in pairs. From the text:
The transferrin target was immobilized on a Biacore T100 SPR chip, and candidate polypeptides were applied in 1:1 mixtures in pairs and response data obtained, in accordance with the methods described in Example 4 above. As illustrated in FIGS. 12A-D, upon flowing candidate polypeptides over the immobilized target, ideally one polypeptide applied alone would bind to a first binding site on the target and produce a first characteristic SPR response level (FIG. 12A), the other polypeptide would bind to a second, distinct binding site on the target, producing a second characteristic response level (FIG. 12B), and a mixture of the two polypeptides together (at the same concentrations as before) would produce a response level approximating the sum of the response levels produced by each polypeptide alone, as the polypeptides bind to distinct binding sites (FIG. 12C).

Assay [5] addresses T2, pooled human transferrin (Homo sapiens, UniProt P02787).
T2 construct: purchased Sigma
The assay can be described thus: High throughput SPR screening of peptides (Biacore A-100). Type of assay: binding. The conditions noted are these: purified peptide, several concentrations; read-out: KD with respect to transferrin. The procedure:
Peptide affinity element candidates were screened against target proteins immobilized on the SPR surface. Each target protein was modified with biotin using the following procedure: NHS-LC-LC-Biotin (Pierce Biotechnology) was re-suspended in DMSO at a concentration of 7.13 mM. Each protein was prepared in 100 mM PBS pH 7.5 at a concentration of ˜50 μM. NHS-LC-LC-Biotin was then added to the protein solution at a 3:1 or 5:1 molar ratio. The reaction was performed for 2 hours at room temperature and the protein sample was analyzed by MALDI mass spectrometry to determine the number of biotin molecules added per molecule of protein. Excess NHS-LC-LC-Biotin was removed using a 3 kDa spin filter. The target proteins for which data is shown in this example were pooled human transferrin (Sigma) and purified bovine ubiquitin.
A Biacore A-100 Surface Plasmon Resonance (SPR) system was used to measure the binding response of each peptide to several different target proteins immobilized on a gold surface. […] Each biotinylated protein was injected over a single spot and the amount of protein captured was measured. […]
Data analysis was performed using the A-100 Evaluation software package that analyzes and filters the data using a variety of measures of quality control for each sensorgram. […] In this manner a relative measure of the specificity of binding for each peptide was determined. […]

The target of assay [6] is T3, TNF-α (Homo sapiens, UniProt P01375). The assay can be described thus: Fluorescence anisotropy validation of TNF1-opt affinity. Type of assay: binding. On the procedure:
Affinity Characterization of Double, Triple and Quadruple Mutants. […] In all cases, an improvement in TNF-α affinity was observed when an additional enhancing substitution was added to the sequence. Double mutants were better than the corresponding single mutants, triple mutants were better than the corresponding single/double mutants and the quadruple mutant was better than the corresponding single/double/triple mutants (FIG. 71, Table 2).
(In general: Polarisation of emitted light reports the rotation of a fluorescent probe.)

Assay [7] concerns the target T3, TNF-α. Kind of assay: SPR of TNF1 lead and mutant peptides on captured TNF-α (Biacore A100). Type of assay: binding. From the text:
Scanning Mutagenesis of the TNF1 Lead Peptide. After lead identification, the next step in the AMPLI algorithm is characterization of point mutations in the lead heteropolymer. Using short peptides makes it chemically feasible to synthesize a significant fraction of the point-mutant space, which can then be screened for enhanced point mutations. For example, all possible point mutations in the 17 randomized positions using all 20 natural amino acids could be synthesized and screened within a single 384-well plate (323 total point-mutants). However, libraries containing all 20 natural amino acids are not required for affinity optimization of protein-protein interactions. A library of TNF1 point-mutants containing all substitutions of the amino acid set {Y, A, D, S, K, N, V, W} in each of the 17 randomized positions (132 unique point-mutants) was synthesized. Tyrosine (Y), alanine (A), aspartic acid (D) and serine (S) were selected because of their effectiveness in producing high affinity interactions when substituted into the complementary-determining regions (CDRs) of synthetic antibodies (Felouse, Proceedings of the National Academy of Sciences 101(34):12467, 2004), lysine (K) was selected to balance the charge in the substitution set, asparagine (N), valine (V) and tryptophan (W) were selected to span the hydropathicity range (Kyte J & Doolittle R F, Journal of Molecular Biology 157(1):105-132, 1982). […] This concentration was used to increase the high-end dynamic range for quantifying enhancing point mutations at the expense of low-end dynamic range for quantifying detrimental point mutations.
Point-mutant libraries were prepared in 96-well stock plates From the stock plate, peptides were diluted to 50 μM concentration in Biacore HBS-EP buffer (GE Healthcare, Piscataway, N.J.) containing 1 mg/ml carboxymethyl-dextran (Sigma-Aldrich, St. Louis, Mo.) to reduce non-specific binding to the CM-5 SPR chip surface. TNF-α was captured on a CM-5 chip surface at different capture levels on spots 1, 2, 4, and 5 across all four flow cells corresponding to a 40-200 RU range of predicted Rmax binding responses. Spot 3 contained only immobilized neutravidin and served as a reference spot.
Using the prepared 96-well plates and Biacore A100 SPR instrument, four peptides were flowed separately, in parallel, through the four flow cells over all 4 TNF-α spots and the neutravidin reference spot, with a 60 second association phase and 300 second dissociation phase. SPR sensorgrams were recorded for each peptide response with all 4 TNF-α spots and the neutravidin reference spot across the four flow cells on the SPR chip. Surface regeneration was performed after every 12 injections in each flow cell with Biacore Glycine 2.5 regeneration solution (GE Healthcare, Piscataway, N.J.). Point-mutant reference subtracted, peptide molecular weight adjusted, responses at the late binding region of the sensorgram (a few seconds before dissociation) were compared to the response of the TNF1 lead
Purified point-mutant affinities were measured on the Biacore A100 using SPR equilibrium binding response across a series of peptide concentrations on an SPR chip with TNF-α captured as described above.
These sequences were synthesized and purified using standard solid-phase FMOC synthesis and HPLC purification.

Assay [8] concerns the target T3, TNF-α. The description is as above. The class given is binding. The following applies: several sensorgrams; read-out: Kd determined from kinetic fits.

Where no end group is shown, it is not given here.

T3 sequence (P01375 77-233 limits assumed, species assumed): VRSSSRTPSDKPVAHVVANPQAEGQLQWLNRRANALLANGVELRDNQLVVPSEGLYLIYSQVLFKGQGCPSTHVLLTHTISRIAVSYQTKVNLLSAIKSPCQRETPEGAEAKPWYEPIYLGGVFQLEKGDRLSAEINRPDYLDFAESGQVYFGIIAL
T2 sequence (P02787 20-698): as the sequence (P02787 20-698) above

As to AHKVVPQRQIRHAYNRYGSC [TRF26], the Rank -- prewash in assay [1] (array with organic prewash) is 436. Besides, the Rank - non-prewash in assay [1] (array without organic prewash) is on record as 596. Moreover, the Kd (as a rule, the constant that tells how readily two partners part at equilibrium) in assay [2] was about 100 µM. Moreover, in assay [3], the “Binding ΔG (observed)” value was -23.3 ± 0.418 kJ/mol. For the same sequence, the “binding to distinct sites on transferrin” value in assay [4] is “bind distinct sites on transferrin”.
On to ARDLLIQKNSGQDVDHRGSC [TRF101], for which the Kd in assay [5] was found to be 78.9 ± 27 µM.
As to FERSYLKMPWKFLQSRQGSC [TNF1-opt], the Kd in assay [6] is 1.1 ± 0.2 µM; in assay [7] (SPR equilibrium binding response, read-out: Kd (observed)), 1.6 ± 0.3 µM; in assay [7] (energetic additivity of component mutations, read-out: Predicted Kd), 0.7 to 1.9 µM; in assay [8] it was 0.7 ± 0.02 µM. The “Kd Fold-Change Relative to Lead” value in assay [7] was determined as 100 ± 22. Also, the “Binding ΔG (observed)” value in assay [7] (calculated from dissociation constants) is -33.3 ± -0.46 kJ/mol.
